How the values were obtained:
[1] = Pharmacokinetics and lung tissue distribution in mice, LC-MS/MS; assay type: in vivo, Balb/C mice; conditions: mouse, in vivo, po, 100 mg/kg
Method: In this example, the pharmacokinetic parameters and lung tissue distribution of the deuterated compounds YF027, YF032, YF036, and YF044 and their respective non-deuterated control compounds (A, B, C, and D) were determined.
Balb/C mice, male (1 group at each time point, 5 mice per group, 55 mice per compound in total), 7-8 weeks old, weighing about 20 g, animal source: Beijing Vital River Laboratory Animal Technology Co., Ltd.
The test compound was completely dissolved in an 8% Tween-80 aqueous solution. A 10 mg/mL drug liquid was prepared for intraperitoneal injection and intragastric administration.
Single intragastric administration was performed at a dose of 100 mg/kg. The pharmacokinetic differences between the deuterated compounds YF027, YF032, YF036, and YF044 and their respective non-deuterated controls A, B, C, and D were compared.
The mice were fasted overnight before administration. In the experiment, orbital venous blood and lung tissue were collected from the mice at time points of no administration group (0 min) and 10 min, 20 min, 30 min, 1 h, 2 h, 3 h, 4 h, 6 h, 8 h, and 24 h after intragastric administration, and about 300 µL of blood was collected from the eyeballs each time.
The collected blood sample was placed in an anticoagulation tube, and quickly inverted and mixed well. The tube was temporarily placed on ice after being labeled. The blood samples temporarily stored on ice were subjected to low-temperature centrifugation within 1 h at 4 °C at 3000 rpm for 10 min. The supernatant obtained after centrifugation was plasma. The plasma was transferred to a new centrifuge tube and stored in a refrigerator at -80 °C for subsequent detection.
The lung tissues of the mice were collected, washed with pre-cooled normal saline to remove the residual blood and tissue fluid, dried with absorbent paper, weighed with a balance, and placed into a centrifuge tube. The tubes were marked and stored in a refrigerator at -80 °C.
The concentrations of the compounds of the present disclosure and control compounds in plasma and lung tissue were determined using LC-MS/MS. Table 2. Pharmacokinetic parameters of compound YF027 of the present disclosure and control compound A

[2] = tested on: CYP3A4; assay type: in vitro ADME, mouse
Method: (§1) This example was to detect the CYP450 metabolic enzyme phenotype of the deuterated compound YF027 and its non-deuterated control compound A (using a CYP450 enzyme metabolic phenotype research kit (recombinant enzymatic method/7 enzymes)-mouse liver microsome test).
(§2) • a. The test compound was prepared into a 40 mM stock solution for later use. 2.5 µL of the stock solution was taken and diluted with DMSO to a test compound concentration of 200 µM, and the compound at this concentration was used in subsequent tests. • b. The working solution concentration of the mixed positive substrates, phenacetin and testosterone, was 200 µM.
(§3) 1) The components of the kit were thawed in an ice bath. The mixture was well mixed by vortexing and then placed on ice for later use. 2) In addition to the microsomes, the other components of the incubation systems were mixed according to the ratios and well mixed by pipetting, and the ratios of the incubation systems are shown below; Table 6. Incubation system of positive control group
(§4) The inhibitors were quinidine, naphthoflavone, pilocarpine, sodium diethyldithiocarbamate, ticlopidine, ketoconazole, and sulfaphenazole, which corresponded to the inhibition of CYP450 enzymes CYP2D6, CYP1A2, CYP2A6, CYP2E1, CYP2C19, CYP3A4, and CYP2C9, respectively. Table 9. Incubation system of negative control group
(§5) 3) Except for the negative control group (Table 9), 3.125 µL of liver microsomes was added to each of the above incubation systems to prepare 125 µL of reaction solution. The reaction solutions were well mixed by vortexing, and then placed in a water bath at 37 °C to initiate the reaction. A timer was set. 4) At time points of 0 min and 90 min, 50 µL of reaction solution was taken, and a pre-cooled acetonitrile solution was added to the reaction solution. The mixture was quickly well mixed by vortexing to stop the reaction. 5) Mass spectrometry detection pretreatment of reaction solution
(§6) The reaction solution was cryopreserved in a refrigerator at -80 °C overnight and then centrifuged for mass spectrometry detection.
(§7) The detection values after 90 min of incubation were processed as ratios relative to the 0-min detection values to determine the metabolic rate of the compounds in different experimental groups after 90 min. The metabolic inhibition rate was then calculated using the formula: Inhibition rate (%) = (1 - metabolic rate of sample with inhibitor/metabolic rate of sample without inhibitor) × 100%, as shown in Table 10 below. […] The metabolic inhibition rate reflects the effect on the metabolic elimination of the drug after adding different selective inhibitors. Therefore, when the metabolic inhibition rate of a specific enzyme is ≥ 25%, the contribution of the specific enzyme to the clearance of the drug under study can be inferred to be ≥ 25% based on the results of the in vitro metabolism study.

[3] = tested on: CYP2A6; assay type: in vitro ADME, mouse
Method: as §1, §2, §3, §4, §5, §6, §7

[4] = tested on: CYP2D6; assay type: in vitro ADME, mouse
Method: as §1, §2, §3, §4, §5, §6, §7

[5] = tested on: CYP2C19; assay type: in vitro ADME, mouse
Method: as §1, §2, §3, §4, §5, §6, §7

[6] = tested on: CYP2C9; assay type: in vitro ADME, mouse
Method: as §1, §2, §3, §4, §5, §6, §7

Cl.[2H]C1([2H])CCCC([2H])([2H])N1C([2H])([2H])c1c(O)cc(C(C)(C)C)c2oc3c4ccc(O)cc4oc(=O)c3c12 [YF027, 10-(tert-Butyl)-3,8-dihydroxy-7-((piperidin-1-yl-2,2,6,6-d4)methyl-d2)-6H-benzofuran[3,2-c]chromen-6-one hydrochloride]
AUC0-∞ [1]: 380.76 ng·h/mL | CL [1]: 262.63 L/h/kg | Cmax [1]: 100.26 ng/mL | Lung tissue distribution Cmax [1]: 1406.73 ng/g | Tmax [1]: 0.5 h | t1/2 [1]: 1.83 h | AUC0-t ([1]; 24 h): 367.05 ng·h/mL | Inhibition rate [2]: 16.5% | Inhibition rate [3]: 14.0% | Inhibition rate [4]: -1.3% | Inhibition rate [5]: -5.7% | Inhibition rate [6]: 3.7%
